Results from patent US20240238288A1, “ALDOSE REDUCTASE INHIBITORS FOR TREATING SORBITOL DEHYDROGENASE DEFICIENCY” (APPLIED THERAPEUTICS, INC., priority 2020, published 2024).

Tested on: fibroblasts from patients with SDH deficiency (biallelic c.757delG)
Experiment: Sorbitol levels in human fibroblasts from patients with sorbitol dehydrogenase deficiency treated with aldose reductase inhibitors
Type: cell-based
Settings: for reduction of sorbitol levels in comparison to vehicle control: 72 hours, SDH-deficient patient fibroblasts, sorbitol by UPLC-MS/MS normalized to protein; for sorbitol levels in SORD fibroblasts (FIG. 1 legend): FIG. 1 histogram, SORD patient fibroblasts
Experimental: Fibroblasts were obtained from skin biopsy of normal human volunteers or patients with confirmed sorbitol dehydrogenase deficiency (biallelic c.757delG). Fibroblasts were cultured in triplicate in Dulbecco's modified Eagle's medium (ThermoFisher) supplemented with 10% fetal bovine serum, penicillin and streptomycin (Gibco). Cells were grown in 5% CO2 at 37° C. in a humidified incubator. Asynchronous cell cultures were grown to approximately 80% confluency, and then treated with vehicle, Compound A (100 uM) or Compound B (10 uM) for 72 hours. Th media containing vehicle, Compound A or Compound B, was changed every 24 hours.
Sorbitol and protein were determinated from lysates of human fibroblasts. For protein measurements, fibroblasts were collected and lysed in RIPA buffer (ThermoFisher) containing protease inhibitors (Roche) and sonicated for 5 minutes using a Bioruptor sonication device (Diagenode). Protein quantification was conducted using a Coomassie assay. For sorbitol determination, a UPLC-tandem mass spectrometry (MS/MS) (Waters Acquity UPLC & TQD mass spectrometer) was used, fibroblasts were collected and lysed in RIPA buffer (ThermoFisher) and sonicated for 5 minutes using a Bioruptor sonication device (Diagenode). Cell lysates were centrifuged 13,000 g for 10 minutes at 4° C., and the supernatants were collected for protein quantification and sorbitol measurement. For Sorbitol measurements, the lysate underwent protein precipitation with acetonitrile (1:5), tenfold dilution with acetonitrile/water (50:50) and cleanup on Oasis HLB cartridges (10 mg/ml), before injection (3 ul) into the UPLC system. The UPLC conditions were as follows: column: BHE amid 1.7 um (2.1×100 mm) at 88° C.; eluent A: acetonitrile 90%/water 5%/isopropanol 5%; eluent B: acetonitrile 80%/water 20%; gradient elution, 0 minutes 100% A to 3.6 minutes 100% B; flow rate of 0.45 ml/minute. The retention time of sorbitol was 2.7 minutes. The linearity of the method was assessed between 0.25 and 50 mgl^−1. The MS/MS conditions were as follows: interface, electrospray interface in negative ion mode; multiple reaction monitory acquisition, m z 180.0-88.9 (CV 24, CE 15). The detection limit (signal-to-noise ration=3) was 0.03 mgl^−1. Sorbitol levels were normalized to protein concentration.

`O=C(O)Cc1nn(Cc2nc3cc(C(F)(F)F)ccc3s2)c(=O)c2nccnc12` [Compound A] was tested, and the “reduction of sorbitol levels in comparison to vehicle control” value (100 uM) was 78% and the “sorbitol levels in SORD fibroblasts (FIG. 1 legend)” value was “reduces sorbitol levels”.

With `O=C(O)Cc1nn(Cc2nc3cc(C(F)(F)F)ccc3s2)c(=O)c2cscc12` [Compound B] the “reduction of sorbitol levels in comparison to vehicle control” value (10 uM) was 75% and the “sorbitol levels in SORD fibroblasts (FIG. 1 legend)” value was “reduces sorbitol levels”.
